Patent US20240246942A1, “KINASE INHIBITORS FOR THE TREATMENT OF NEURODEGENERATIVE DISEASES” (priority 2020, published 2024)

Key:
Assay in all cases: biochemical
[1] = biological target: T1, panel of 374 wild-type kinases (Homo sapiens, UniProt O95382); conditions: read-out: % Enzyme Activity (relative to DMSO controls), MEKK6
T1 construct: purchased Reaction Biology Corporation
T1 sequence (O95382 1-1288): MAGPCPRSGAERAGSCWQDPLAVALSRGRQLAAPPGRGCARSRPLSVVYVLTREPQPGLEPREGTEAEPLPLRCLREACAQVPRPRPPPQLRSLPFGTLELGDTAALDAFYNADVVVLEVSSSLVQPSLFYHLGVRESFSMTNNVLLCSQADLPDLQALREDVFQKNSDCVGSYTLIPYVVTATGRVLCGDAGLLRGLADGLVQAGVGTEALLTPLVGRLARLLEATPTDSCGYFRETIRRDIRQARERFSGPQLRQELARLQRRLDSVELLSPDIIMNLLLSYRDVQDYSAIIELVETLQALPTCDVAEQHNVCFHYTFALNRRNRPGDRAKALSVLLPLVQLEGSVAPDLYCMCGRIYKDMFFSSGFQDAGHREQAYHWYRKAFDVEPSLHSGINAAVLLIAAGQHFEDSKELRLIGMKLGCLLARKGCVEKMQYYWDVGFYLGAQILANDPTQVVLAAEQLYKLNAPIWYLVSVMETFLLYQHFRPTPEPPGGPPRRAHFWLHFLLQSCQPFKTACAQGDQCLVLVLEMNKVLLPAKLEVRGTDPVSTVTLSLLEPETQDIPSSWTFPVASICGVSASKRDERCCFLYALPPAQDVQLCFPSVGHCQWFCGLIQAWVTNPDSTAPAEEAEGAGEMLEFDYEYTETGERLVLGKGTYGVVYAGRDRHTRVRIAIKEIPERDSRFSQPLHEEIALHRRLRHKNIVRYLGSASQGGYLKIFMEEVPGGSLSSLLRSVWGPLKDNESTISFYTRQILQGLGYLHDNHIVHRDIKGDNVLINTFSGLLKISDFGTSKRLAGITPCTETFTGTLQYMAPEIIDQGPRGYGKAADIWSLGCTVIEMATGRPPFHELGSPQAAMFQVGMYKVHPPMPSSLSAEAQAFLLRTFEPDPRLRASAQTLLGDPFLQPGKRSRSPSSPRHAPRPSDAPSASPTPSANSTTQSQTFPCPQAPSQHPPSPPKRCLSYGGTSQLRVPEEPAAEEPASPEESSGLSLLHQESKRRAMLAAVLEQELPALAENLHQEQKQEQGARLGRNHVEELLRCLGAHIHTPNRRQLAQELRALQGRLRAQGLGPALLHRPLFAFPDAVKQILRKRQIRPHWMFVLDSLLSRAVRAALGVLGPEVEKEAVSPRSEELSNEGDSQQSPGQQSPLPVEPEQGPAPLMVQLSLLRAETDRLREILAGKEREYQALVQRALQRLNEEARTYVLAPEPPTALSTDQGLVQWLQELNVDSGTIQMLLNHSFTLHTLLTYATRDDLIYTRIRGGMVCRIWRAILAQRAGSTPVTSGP

[2] = biological target: T2, panel of 374 wild-type kinases (Homo sapiens, UniProt Q02750); conditions: read-out: % Enzyme Activity (relative to DMSO controls), MEK1
T2 construct: purchased Reaction Biology Corporation

[3] = biological target: T3, panel of 374 wild-type kinases (Homo sapiens, UniProt Q05397); conditions: read-out: % Enzyme Activity (relative to DMSO controls), FAK/PTK2
T3 construct: purchased Reaction Biology Corporation

[4] = biological target: T4, panel of 374 wild-type kinases (Homo sapiens, UniProt Q13043); conditions: read-out: % Enzyme Activity (relative to DMSO controls), MST1/STK4
T4 construct: purchased Reaction Biology Corporation
T4 sequence (Q13043 1-487): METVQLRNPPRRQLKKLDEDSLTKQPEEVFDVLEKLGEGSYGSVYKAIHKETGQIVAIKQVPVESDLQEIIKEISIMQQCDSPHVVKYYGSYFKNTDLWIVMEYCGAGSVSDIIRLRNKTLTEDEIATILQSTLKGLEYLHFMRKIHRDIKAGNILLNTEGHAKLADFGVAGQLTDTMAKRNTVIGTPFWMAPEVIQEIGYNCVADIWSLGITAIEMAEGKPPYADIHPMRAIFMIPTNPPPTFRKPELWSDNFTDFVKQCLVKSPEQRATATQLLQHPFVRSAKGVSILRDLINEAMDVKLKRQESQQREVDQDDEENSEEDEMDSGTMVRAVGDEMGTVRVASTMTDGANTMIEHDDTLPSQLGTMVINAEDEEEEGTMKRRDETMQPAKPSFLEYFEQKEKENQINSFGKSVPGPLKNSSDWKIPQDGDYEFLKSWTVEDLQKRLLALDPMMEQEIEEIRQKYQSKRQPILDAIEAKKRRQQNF

[5] = biological target: T5, panel of 374 wild-type kinases (Homo sapiens, UniProt Q92918); conditions: read-out: % Enzyme Activity (relative to DMSO controls), HPK1/MAP4K1
T5 construct: purchased Reaction Biology Corporation

[6] = biological target: T6, panel of 374 wild-type kinases (Homo sapiens, UniProt Q9UHD2); conditions: read-out: % Enzyme Activity (relative to DMSO controls), kinase TBK1
T6 construct: purchased Reaction Biology Corporation
T6 sequence (Q9UHD2 1-729): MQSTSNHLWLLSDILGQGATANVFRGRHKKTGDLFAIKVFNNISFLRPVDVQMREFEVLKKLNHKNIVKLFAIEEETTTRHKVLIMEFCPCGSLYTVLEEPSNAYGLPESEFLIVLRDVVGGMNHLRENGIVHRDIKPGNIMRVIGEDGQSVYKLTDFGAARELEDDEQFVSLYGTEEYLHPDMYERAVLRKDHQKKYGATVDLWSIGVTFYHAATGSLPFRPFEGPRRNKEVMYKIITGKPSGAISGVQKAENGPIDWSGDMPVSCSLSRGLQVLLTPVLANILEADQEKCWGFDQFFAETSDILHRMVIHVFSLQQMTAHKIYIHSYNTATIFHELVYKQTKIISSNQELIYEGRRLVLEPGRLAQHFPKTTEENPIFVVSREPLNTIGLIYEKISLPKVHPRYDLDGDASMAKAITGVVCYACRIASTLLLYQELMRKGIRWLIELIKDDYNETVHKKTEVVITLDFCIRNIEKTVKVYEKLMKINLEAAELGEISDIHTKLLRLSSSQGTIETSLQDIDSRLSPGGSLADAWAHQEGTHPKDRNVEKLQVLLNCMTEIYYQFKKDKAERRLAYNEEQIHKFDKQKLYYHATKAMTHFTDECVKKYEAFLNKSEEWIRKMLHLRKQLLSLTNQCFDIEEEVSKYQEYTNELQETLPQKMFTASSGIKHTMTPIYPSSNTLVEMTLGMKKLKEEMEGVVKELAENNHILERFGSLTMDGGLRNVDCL

T2 sequence (Q02750 whole entry): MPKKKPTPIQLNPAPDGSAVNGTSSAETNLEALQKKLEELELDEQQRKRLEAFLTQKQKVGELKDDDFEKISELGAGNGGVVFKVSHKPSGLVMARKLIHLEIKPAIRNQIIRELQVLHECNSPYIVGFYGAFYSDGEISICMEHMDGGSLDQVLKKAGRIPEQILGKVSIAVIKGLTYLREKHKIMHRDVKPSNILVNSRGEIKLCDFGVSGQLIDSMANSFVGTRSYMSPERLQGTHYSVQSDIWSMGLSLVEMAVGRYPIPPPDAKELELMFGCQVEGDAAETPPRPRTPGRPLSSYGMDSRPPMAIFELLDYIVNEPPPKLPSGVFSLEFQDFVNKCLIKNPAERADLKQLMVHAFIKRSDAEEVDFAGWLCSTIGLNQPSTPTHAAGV
T3 sequence (Q05397 whole entry): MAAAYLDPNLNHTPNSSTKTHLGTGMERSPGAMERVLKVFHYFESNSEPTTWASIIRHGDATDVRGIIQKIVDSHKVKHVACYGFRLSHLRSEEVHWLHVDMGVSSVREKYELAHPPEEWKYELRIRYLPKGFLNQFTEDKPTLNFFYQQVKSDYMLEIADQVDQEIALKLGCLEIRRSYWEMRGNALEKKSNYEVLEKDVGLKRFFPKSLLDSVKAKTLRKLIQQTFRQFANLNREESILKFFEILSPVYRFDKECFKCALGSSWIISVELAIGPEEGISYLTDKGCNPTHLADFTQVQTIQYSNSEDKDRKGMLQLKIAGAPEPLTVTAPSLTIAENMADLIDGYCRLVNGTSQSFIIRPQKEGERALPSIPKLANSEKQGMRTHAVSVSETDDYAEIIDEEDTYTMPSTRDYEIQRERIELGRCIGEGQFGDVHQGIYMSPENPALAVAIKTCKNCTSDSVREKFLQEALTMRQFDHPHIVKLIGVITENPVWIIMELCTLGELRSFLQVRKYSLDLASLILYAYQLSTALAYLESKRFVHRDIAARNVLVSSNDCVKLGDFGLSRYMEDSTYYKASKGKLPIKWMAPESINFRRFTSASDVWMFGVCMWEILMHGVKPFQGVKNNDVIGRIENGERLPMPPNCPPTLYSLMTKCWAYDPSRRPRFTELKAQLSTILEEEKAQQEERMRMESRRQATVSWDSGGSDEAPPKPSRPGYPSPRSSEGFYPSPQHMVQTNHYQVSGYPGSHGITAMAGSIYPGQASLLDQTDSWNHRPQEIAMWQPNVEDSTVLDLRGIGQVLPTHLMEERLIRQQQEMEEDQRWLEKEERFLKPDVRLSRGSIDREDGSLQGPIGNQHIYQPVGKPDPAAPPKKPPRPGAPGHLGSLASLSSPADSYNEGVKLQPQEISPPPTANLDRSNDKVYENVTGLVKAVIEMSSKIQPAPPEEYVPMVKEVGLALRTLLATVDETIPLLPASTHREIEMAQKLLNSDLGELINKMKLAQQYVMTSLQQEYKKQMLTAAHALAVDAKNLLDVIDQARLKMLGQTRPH
T5 sequence (Q92918 whole entry): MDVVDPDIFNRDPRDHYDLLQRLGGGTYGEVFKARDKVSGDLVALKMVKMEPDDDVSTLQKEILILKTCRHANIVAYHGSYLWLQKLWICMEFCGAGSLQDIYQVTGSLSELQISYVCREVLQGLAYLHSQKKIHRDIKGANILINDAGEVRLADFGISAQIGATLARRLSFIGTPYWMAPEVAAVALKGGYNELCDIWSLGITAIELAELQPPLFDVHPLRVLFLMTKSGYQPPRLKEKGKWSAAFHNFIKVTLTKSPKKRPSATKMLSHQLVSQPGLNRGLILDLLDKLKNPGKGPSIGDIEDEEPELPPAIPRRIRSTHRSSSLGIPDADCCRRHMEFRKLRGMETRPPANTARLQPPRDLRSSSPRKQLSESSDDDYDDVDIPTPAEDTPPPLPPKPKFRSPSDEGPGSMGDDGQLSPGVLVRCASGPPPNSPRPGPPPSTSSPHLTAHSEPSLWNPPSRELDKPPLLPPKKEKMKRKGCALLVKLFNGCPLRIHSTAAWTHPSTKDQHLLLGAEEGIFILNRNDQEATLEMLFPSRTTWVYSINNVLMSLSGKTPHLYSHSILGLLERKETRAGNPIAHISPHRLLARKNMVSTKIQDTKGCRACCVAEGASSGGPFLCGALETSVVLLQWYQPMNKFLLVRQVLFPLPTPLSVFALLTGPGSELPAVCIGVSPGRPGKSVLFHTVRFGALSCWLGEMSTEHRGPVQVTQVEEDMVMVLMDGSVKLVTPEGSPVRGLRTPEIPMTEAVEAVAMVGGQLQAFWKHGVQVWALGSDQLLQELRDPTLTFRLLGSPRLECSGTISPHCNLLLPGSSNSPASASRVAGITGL

| Structure (SMILES) | remaining activity at 5 µM [1] [%] | remaining activity at 5 µM [2] [%] | remaining activity at 5 µM [3] [%] | remaining activity at 5 µM [4] [%] | remaining activity at 5 µM [5] [%] | remaining activity at 5 µM [6] [%] | remaining activity at 10 µM ([1]; 10 uM) [%] | remaining activity at 10 µM ([2]; 10 uM) [%] | remaining activity at 10 µM ([3]; 10 uM) [%] | remaining activity at 10 µM ([4]; 10 uM) [%] | remaining activity at 10 µM ([5]; 10 uM) [%] | remaining activity at 10 µM ([6]; 10 uM) [%] |
| --- | --- | --- | --- | --- | --- | --- | --- | --- | --- | --- | --- | --- |
| O=C(Nc1cnn(-c2csc(C(=O)NC3COC3)c2)c1)Nc1ccccc1Cl [Compound 17, 4-(4-(3-(2-chlorophenyl)ureido)-1H-pyrazol-1-yl)-N-(oxetan-3-yl)thiophene-2-carboxamide] | 98.8 | 104 | 95.7 | 99.3 | 132 | 102 | – | – | – | – | – | – |
| O=C(Nc1cnn(-c2csc(C(=O)NC3COC3)c2)c1)Nc1c(F)cccc1Cl [Compound 25, 4-(4-(3-(2-chloro-6-fluorophenyl)ureido)-1H-pyrazol-1-yl)-N-(oxetan-3-yl)thiophene-2-carboxamide] | 92.5 | 107 | 89 | 96.6 | 92.7 | 98.8 | – | – | – | – | – | – |
| Cc1sc(C(=O)NC2COC2)cc1-n1cc(NC(=O)Nc2c(F)cccc2Cl)cn1 [Compound 27, 4-(4-(3-(2-chloro-6-fluorophenyl)ureido)-1H-pyrazol-1-yl)-5-methyl-N-(oxetan-3-yl)thiophene-2-carboxamide] | – | – | – | – | – | – | 79.3 | 95.5 | 104 | 107 | 99.2 | 97.8 |
